This note sets out measurements from ChEMBL document CHEMBL5356930, “Small-molecule inhibitors of bacterial-producing metallo-β-lactamases: insights into their resistance mechanisms and biochemical analyses of their activities” (RSC Med Chem, 2023).

Data set [1] concerns the target T1, Metallo-beta-lactamase type 2 (Bacteria, UniProt C7C422). The data set can be described thus: Inhibition of wildtype bacterial NDM-1 (unknown origin) expressed in Escherichia coli BL21(DE3) cells using nitrocefin as substrate incubated for 20 mins by absorbance based assay.
Data set [2] has as its target T1, Metallo-beta-lactamase type 2. Put plainly: Binding affinity to wildtype bacterial NDM-1 (unknown origin) expressed in Escherichia coli BL21(DE3) cells assessed as dissociation constant.
The subject of data set [3] is Enterobacteriaceae. The data set can be described thus: Antibacterial activity against NDM-1-producing Enterobacteriaceae. It is filed as functional.
Data set [4] has as its system Escherichia coli. Put plainly: Antibacterial activity against NDM-1-producing Escherichia coli in presence of meropenem. The data set is classed as functional.
Another data set addresses Beta-lactamase VIM-1 (Bacteria, UniProt Q8GDC1). Put plainly: Inhibition of bacterial Metallo-beta-lactamase VIM-1 (unknown origin).
Data set [5] is described as follows: Inhibition of bacterial Metallo-beta-lactamase VIM-2 (unknown origin). Details: species or system Bacteria.
A short description of data set [6]: Inhibition of bacterial Metallo-beta-lactamase VIM-4 (unknown origin). On the set-up: species or system Bacteria.
Data set [7] in a line: Binding affinity to bacterial Metallo-beta-lactamase VIM-2 (unknown origin) assessed as inhibition constant. On the set-up: species or system Bacteria.
The target in data set [8] is T1, Metallo-beta-lactamase type 2. The data set can be described thus: Binding affinity to bacterial NDM-1 (unknown origin) assessed as inhibition constant.
Data set [9] has the same target. The data set can be described thus: Inhibition of bacterial NDM-1 (unknown origin) using imipenem as substrate.
The subject of another data set is MCF7. Put plainly: Cytotoxicity against human MCF7 cells at 12.5 uM relative to control. It is filed as toxicity, cell-based. The following applies: mcf7, 12.5 µM.
Data set [10] deals with T1, Metallo-beta-lactamase type 2. The data set can be described thus: Inhibition of bacterial NDM-1 (unknown origin).
The next data set relates to Vero C1008. The data set can be described thus: Cytotoxicity against African green monkey Vero E6 cells at 40 ug/ml relative to control. It is filed as toxicity, cell-based. To be noted: chlorocebus sabaeus, at 40 µg/mL.
Data set [11] deals with L929. Put plainly: Cytotoxicity against mouse L929 cells at 40 ug/ml relative to control. The data set is classed as toxicity, cell-based. The following applies: at 40 µg/mL.
Data set [12] has as its system Escherichia coli. The data set can be described thus: Synergistic activity against NDM-1-producing engineered Escherichia coli assessed as fractional inhibition concentration index in presence of meropenem. It is filed as functional.
For data set [13], the system named is Escherichia coli. Put plainly: Synergistic activity against multiple NDM-1-producing engineered Escherichia coli clinical isolate assessed as fractional inhibition concentration index in presence of meropenem. The data set is classed as functional.
The nature of data set [14]: Cytotoxicity against human HeLa cells incubated for 24 hrs by PrestoBlue reagent based assay. It is filed as toxicity, cell-based.
A short description of data set [15]: Inhibition of bacterial Metallo-beta-lactamase GIM-1 using nitrocefin as substrate. Details: species or system Bacteria.
Data set [16] can be described thus: Inhibition of Acinetobacter baumannii Metallo-beta-lactamase IMP-1.
Another data set has as its system Acinetobacter baumannii. The data set can be described thus: Antibacterial activity against MBL-producing Acinetobacter baumannii assessed as diameter of inhibition zone in presence of imipenem. It is filed as functional.
Data set [17] in a line: Cytotoxicity against human HeLa cells. The data set is classed as toxicity, cell-based.
Data set [18] is described as follows: Inhibition of Acinetobacter baumannii recombinant NDM-1 using nitrocefin as substrate preincubated for 10 mins followed by substrate addition by spectrophotometric analysis.
Data set [19] is described as follows: Cytotoxicity against human HEK293 cells incubated for 24 hrs by MTT assay. The data set is classed as toxicity, cell-based. (In general: Formazan colour is commonly taken as a measure of viable cells.)
In data set [20] the target is T1, Metallo-beta-lactamase type 2. The data set can be described thus: Inhibition of bacterial NDM-1 (unknown origin) using nitrocefin as substrate.
For data set [21] the target is unchanged. The data set can be described thus: Binding affinity to bacterial NDM-1 (unknown origin) using nitrocefin as substrate assessed as inhibition constant.
Data set [22] concerns Enterobacteriaceae. The data set can be described thus: Synergistic antibacterial activity against NDM-1-producing Carbapenem-resistant Enterobacteriaceae assessed as fractional inhibitory concentration index in presence of meropenem. The data set is classed as functional.
Data set [23] relates to L929. Put plainly: Cytotoxicity against mouse L929 cells at 50 uM incubated for 48 hrs by CCK8 assay relative to control. The following applies: l929, 48 h. It is filed as toxicity, cell-based.
Data set [24] concerns the target T1, Metallo-beta-lactamase type 2. Put plainly: Inhibition of bacterial NDM-1 (unknown origin) using imipenem as substrate by Agilent UV8453 Spectrometric analysis.

Converted amounts (≈) assume the structure as drawn.

T1 sequence (C7C422 whole entry): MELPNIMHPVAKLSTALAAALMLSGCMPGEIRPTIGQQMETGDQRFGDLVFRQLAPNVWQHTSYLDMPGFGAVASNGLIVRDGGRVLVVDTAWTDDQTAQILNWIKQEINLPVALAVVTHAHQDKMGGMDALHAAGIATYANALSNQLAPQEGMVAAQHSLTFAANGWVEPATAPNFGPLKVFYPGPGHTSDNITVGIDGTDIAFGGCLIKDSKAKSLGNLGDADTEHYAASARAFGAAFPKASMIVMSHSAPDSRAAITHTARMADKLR

Broadly, the IC50 is the midpoint of a concentration-inhibition curve. One may read the Kd as a measure of binding affinity in units of concentration. Broadly, the MIC50 is an inhibitory concentration at the 50% level, which refers to growth in some studies and to a panel of isolates in others. As for `CC1=C[C@@]2(C)[C@@H](/C(C)=C/[C@]3(C)O[C@H](C)[C@@]4(C)O[C@H]43)[C@](C)([C@@H](O)[C@@H](C)C(=O)C(C)C)[C@H]2[C@]2(C)O[C@H]12`, 12.1 µM corresponded to half-maximal inhibition in data set [1] (IC50). Also, the Kd in data set [2] was found to be 11.8 µM. In the data set on Enterobacteriaceae [3], the MIC50 is 32 µM (≈ 15.1 µg/mL).
For orientation: MIC means the lowest concentration found to suppress growth. Consider `CC(C)c1cc2c(c(O)c1O)[C@@]1(C(=O)O)CCCC(C)(C)[C@@H]1CC2` [CARNOSIC ACID], for which the MIC in the data set on Escherichia coli [4] is 4 µg/mL.
The Ki is a dissociation constant, usually derived from enzyme kinetics or from competition with a known ligand. With `O=C(O)c1ccccc1CCn1c(-c2cccc(-c3ccccc3)c2)n[nH]c1=S`, the IC50 amounted to 1.61 µM against Beta-lactamase VIM-1, 0.08 µM in data set [5] and 2.1 µM in data set [6]. For the same compound, in data set [7], the Ki turned out to be 0.038 µM.
As to `O=S(=O)(Nc1cccc2cccnc12)c1ccc(Cl)cc1`, in data set [8] (read-out: Ki), the Ki came out at 5.9 µM. The same compound registered an IC50 in data set [9] of 0.02 µM. Besides, in the data set with MCF7, the Activity is less than 60%.
As for `CO[C@H]1C(=O)N2C(C(=O)O)=C(CSc3nc4ccccc4s3)CS[C@H]12`, in data set [10], the concentration for half-maximal inhibition (IC50) is 0.096 µM. Also, the Activity in the data set on Vero C1008 and in the data set on L929 [11] was greater than 60% throughout. The “fractional inhibitory concentration index (FICI)” value was 0.02 with Escherichia coli [12] and 0.031 in the data set on Escherichia coli [13].
`COP(=O)(CCSC(C)=O)N(C)Cc1ccccn1` (racemic): the IC50 at 24 h in [14] is greater than 500 µM. In addition, in data set [15], the IC50 was 109 µM.
Take `Oc1ccc(Br)cc1/C=N/c1cccnc1/N=C/c1cc(Br)ccc1O`: inhibition in data set [16] was half-maximal at 83.7 µM (IC50). The “diameter of the inhibition zone (DIZ)” value in the data set on Acinetobacter baumannii is on record as 25 mm.
Turning to `CN1CCN(C(=S)N/N=C/c2ccccc2O)CC1`, the IC50 in data set [10] was 0.302 µM; in data set [17], greater than 64 µg/mL. In addition, the Ki in [8] worked out at 440 µM.
Turning to `CC1=C(CO)C(=O)O[C@@H]([C@@H](C)[C@H]2CC[C@H]3[C@@H]4C[C@H]5O[C@]56[C@@H](O)C=CC(=O)[C@]6(C)[C@H]4CC[C@]23C)C1` [WITHAFERIN A], the IC50 in [18] is 24 µM.
Regarding `COP(=O)(CCSC(C)=O)NCc1ccccn1` (configuration not stated), the half-maximal inhibitory concentration (IC50) in data set [5] came out at 2.2 µM; in data set [15] it was 86 µM.
On to `COC(=O)[C@H]1CN(C(=O)CN(Cc2ccccn2)Cc2ccccn2)C[C@@H]1c1ccc(OCc2ccccc2)c(OC)c1` (racemic), for which the IC50 at 24 h in [19] is greater than 128 µM. In [20], this compound showed an IC50 of 51 µM. The Ki in [21] worked out at 4.6 µM. Further, in the data set on Enterobacteriaceae [22], the “fractional inhibitory concentration index (FICI)” value is listed as 0.01.
In the data set with L929 [23], `S=C(N/N=C/c1ccccn1)Nc1ccc(Cl)cc1` showed an Activity greater than 60%. This compound showed an IC50 in data set [24] of 0.038 µM.
